Assay results: PubChem BioAssay AID1963838 (Molecular Pharmacology Branch, DTP, NCI, 2024)

System: 855422-203-R-J1-PDC complex spheroid viability
Experiment: Anticancer human tumor 855422-203-R-J1-PDC patient-derived bladder carcinoma cell line growth inhibition [POLQ]
Settings: for IC50: curve of first compound; for viability, T/C: stronger effect = lower value
How it was run: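 PDC + HUVEC + MSC complex spheroids; POLQ inhibitors ± partner drugs; top conc. at/near clinical Cmax, else 10 microM (SN-38 1 microM), half-log dilutions; 37 degrees C, 5% CO2.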

[1] = second compound 0.0316 µM, first compound 0.00316 µM
[2] = second compound 0.0316 µM, first compound 0.01 µM
[3] = second compound 0.0316 µM, first compound 0.0316 µM
[4] = second compound 0.0316 µM, first compound 0.1 µM
[5] = second compound 0.0316 µM, first compound 0.316 µM
[6] = second compound 0.0316 µM, first compound 1 µM
[7] = second compound 0.1 µM, first compound 0.00316 µM
[8] = second compound 0.1 µM, first compound 0.01 µM
[9] = second compound 0.1 µM, first compound 0.0316 µM
[10] = second compound 0.1 µM, first compound 0.1 µM
[11] = second compound 0.1 µM, first compound 0.316 µM
[12] = second compound 0.1 µM, first compound 1 µM
[13] = second compound 0.316 µM, first compound 0.00316 µM
[14] = second compound 0.316 µM, first compound 0.01 µM
[15] = second compound 0.316 µM, first compound 0.0316 µM
[16] = second compound 0.316 µM, first compound 0.1 µM
[17] = second compound 0.316 µM, first compound 0.316 µM
[18] = second compound 0.316 µM, first compound 1 µM
[19] = second compound 1 µM, first compound 0.00316 µM
[20] = second compound 1 µM, first compound 0.01 µM
[21] = second compound 1 µM, first compound 0.0316 µM
[22] = second compound 1 µM, first compound 0.1 µM
[23] = second compound 1 µM, first compound 0.316 µM
[24] = second compound 1 µM, first compound 1 µM
[25] = second compound 3.16 µM, first compound 0.00316 µM
[26] = second compound 3.16 µM, first compound 0.01 µM
[27] = second compound 3.16 µM, first compound 0.0316 µM
[28] = second compound 3.16 µM, first compound 0.1 µM
[29] = second compound 3.16 µM, first compound 0.316 µM
[30] = second compound 3.16 µM, first compound 1 µM
[31] = second compound 10 µM, first compound 0.00316 µM
[32] = second compound 10 µM, first compound 0.01 µM
[33] = second compound 10 µM, first compound 0.0316 µM
[34] = second compound 10 µM, first compound 0.1 µM
[35] = second compound 10 µM, first compound 0.316 µM
[36] = second compound 10 µM, first compound 1 µM
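Also: spheroids exposed to compounds for seven days before readout.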

`CCc1c2c(nc3ccc(O)cc13)-c1cc3c(c(=O)n1C2)COC(=O)[C@]3(O)CC` + Cc1cccc(N(C)C(=O)C2C(O)CCN2c2nc(C)cc(C(F)(F)F)c2C#N)c1 showed an IC50 (second compound 0.0316 µM) of 3.34 nM, an IC50 (second compound 0.1 µM) of 3.49 nM and an IC50 (second compound 0.316 µM) of under 3.16 nM. The IC50 (second compound 1 µM) was under 3.16 nM, the IC50 (second compound 3.16 µM) was under 3.16 nM and the IC50 (second compound 10 µM) was under 3.16 nM. It also gave a viability, T/C [1] of 52.3%, a viability, T/C [2] of 9.87% and a viability, T/C [3] of 7.42%. The viability, T/C [4] was 5.03%, the viability, T/C [5] was 3.07% and the viability, T/C [6] was 1.53%. It also gave a viability, T/C [7] of 53.6%, a viability, T/C [8] of 14.6% and a viability, T/C [9] of 7.37%. For the same compound, the viability, T/C [10] was 4.23%, the viability, T/C [11] was 3.04% and the viability, T/C [12] was 1.53%. For the same compound, the viability, T/C [13] was 46.3%, the viability, T/C [14] was 13.7% and the viability, T/C [15] was 6.83%. For the same compound, the viability, T/C [16] was 5.76%, the viability, T/C [17] was 2.86% and the viability, T/C [18] was 1.53%. The viability, T/C [19] was 44.8%, the viability, T/C [20] was 15.2% and the viability, T/C [21] was 8.04%. It also gave a viability, T/C [22] of 5.03%, a viability, T/C [23] of 2.97% and a viability, T/C [24] of 1.31%. The viability, T/C [25] was 40%, the viability, T/C [26] was 12.1% and the viability, T/C [27] was 6.92%. It also gave a viability, T/C [28] of 5.22%, a viability, T/C [29] of 2.69% and a viability, T/C [30] of 1.55%. For the same compound, the viability, T/C [31] was 28.5%, the viability, T/C [32] was 11.5% and the viability, T/C [33] was 7.06%. For the same compound, the viability, T/C [34] was 3.56%, the viability, T/C [35] was 2.83% and the viability, T/C [36] was 2.09%.

Compound `CC[C@@]1(O)C(=O)OCc2c1cc1n(c2=O)Cc2cc3c(CN(C)C)c(O)ccc3nc2-1` + COC1C(OC(N)=O)C(O)C(Oc2ccc3c(O)c(NC(=O)c4ccc(O)c(CC=C(C)C)c4)c(=O)oc3c2C)OC1(C)C has an IC50 (second compound 0.0316 µM) of 35.2 nM, an IC50 (second compound 0.1 µM) of 30.3 nM and an IC50 (second compound 0.316 µM) of 30.2 nM. It also gave an IC50 (second compound 1 µM) of 27.7 nM, an IC50 (second compound 3.16 µM) of 23.3 nM and an IC50 (second compound 10 µM) of 22.5 nM. The viability, T/C (second compound 0.0316 µM, first compound 0.000316 µM) was 125%, the viability, T/C (second compound 0.0316 µM, first compound 0.001 µM) was 123% and the viability, T/C [1] was 116%. It also gave a viability, T/C [2] of 126%, a viability, T/C [3] of 53.5% and a viability, T/C [4] of 14.7%. For the same compound, the viability, T/C (second compound 0.1 µM, first compound 0.000316 µM) was 108%, the viability, T/C (second compound 0.1 µM, first compound 0.001 µM) was 111% and the viability, T/C [7] was 104%. For the same compound, the viability, T/C [8] was 113%, the viability, T/C [9] was 47.8% and the viability, T/C [10] was 11.8%. For the same compound, the viability, T/C (second compound 0.316 µM, first compound 0.000316 µM) was 116%, the viability, T/C (second compound 0.316 µM, first compound 0.001 µM) was 110% and the viability, T/C [13] was 122%. The viability, T/C [14] was 101%, the viability, T/C [15] was 48.2% and the viability, T/C [16] was 11.7%. For the same compound, the viability, T/C (second compound 1 µM, first compound 0.000316 µM) was 116%, the viability, T/C (second compound 1 µM, first compound 0.001 µM) was 124% and the viability, T/C [19] was 112%. For the same compound, the viability, T/C [20] was 91.7%, the viability, T/C [21] was 44.7% and the viability, T/C [22] was 10.6%. The viability, T/C (second compound 3.16 µM, first compound 0.000316 µM) was 112%, the viability, T/C (second compound 3.16 µM, first compound 0.001 µM) was 108% and the viability, T/C [25] was 109%. It also gave a viability, T/C [26] of 112%, a viability, T/C [27] of 28.4% and a viability, T/C [28] of 11.7%. The viability, T/C (second compound 10 µM, first compound 0.000316 µM) was 117%, the viability, T/C (second compound 10 µM, first compound 0.001 µM) was 107% and the viability, T/C [31] was 117%. For the same compound, the viability, T/C [32] was 98.9%, the viability, T/C [33] was 29.6% and the viability, T/C [34] was 16.2%.

`O=C(c1cc(Cc2n[nH]c(=O)c3ccccc23)ccc1F)N1CCN(C(=O)C2CC2)CC1` + Cc1cccc(N(C)C(=O)C2C(O)CCN2c2nc(C)cc(C(F)(F)F)c2C#N)c1 was tested, and the IC50 (second compound 0.0316 µM) was over 10000 nM, the IC50 (second compound 0.1 µM) was over 10000 nM and the IC50 (second compound 0.316 µM) was over 10000 nM. The IC50 (second compound 1 µM) was over 10000 nM, the IC50 (second compound 3.16 µM) was over 10000 nM and the IC50 (second compound 10 µM) was over 10000 nM. It also gave a viability, T/C [3] of 117%, a viability, T/C [4] of 114% and a viability, T/C [5] of 117%. It also gave a viability, T/C [6] of 107%, a viability, T/C (second compound 0.0316 µM, first compound 3.16 µM) of 101% and a viability, T/C (second compound 0.0316 µM, first compound 10 µM) of 80.1%. It also gave a viability, T/C [9] of 111%, a viability, T/C [10] of 103% and a viability, T/C [11] of 108%. For the same compound, the viability, T/C [12] was 109%, the viability, T/C (second compound 0.1 µM, first compound 3.16 µM) was 101% and the viability, T/C (second compound 0.1 µM, first compound 10 µM) was 75.3%. For the same compound, the viability, T/C [15] was 105%, the viability, T/C [16] was 95% and the viability, T/C [17] was 110%. It also gave a viability, T/C [18] of 111%, a viability, T/C (second compound 0.316 µM, first compound 3.16 µM) of 103% and a viability, T/C (second compound 0.316 µM, first compound 10 µM) of 76.8%. For the same compound, the viability, T/C [21] was 104%, the viability, T/C [22] was 108% and the viability, T/C [23] was 111%. It also gave a viability, T/C [24] of 107%, a viability, T/C (second compound 1 µM, first compound 3.16 µM) of 106% and a viability, T/C (second compound 1 µM, first compound 10 µM) of 81.2%. For the same compound, the viability, T/C [27] was 93.8%, the viability, T/C [28] was 103% and the viability, T/C [29] was 120%. For the same compound, the viability, T/C [30] was 103%, the viability, T/C (second compound 3.16 µM, first compound 3.16 µM) was 105% and the viability, T/C (second compound 3.16 µM, first compound 10 µM) was 66.9%. For the same compound, the viability, T/C [33] was 109%, the viability, T/C [34] was 113% and the viability, T/C [35] was 114%. The viability, T/C [36] was 106%, the viability, T/C (second compound 10 µM, first compound 3.16 µM) was 96.7% and the viability, T/C (second compound 10 µM, first compound 10 µM) was 65.1%.
